Calls of active or inactive are those of the source. The rule behind the calls is not given here.
Key:
[1] = Binding affinity to oxidoreductase 1 (unknown origin) at 1 mM by HSQC-NMR analysis
[2] = Binding affinity to oxidoreductase 1 (unknown origin) at 1.5 mM by HSQC-NMR analysis
[3] = Binding affinity to oxidoreductase 1 (unknown origin) by STD-NMR analysis
[4] = target: T1, SPRY domain-containing SOCS box protein 2 (Homo sapiens) (UniProt Q99619); test: Binding affinity to SPSB2 (unknown origin) at 3mM by 19F NMR method
T1 sequence (whole entry): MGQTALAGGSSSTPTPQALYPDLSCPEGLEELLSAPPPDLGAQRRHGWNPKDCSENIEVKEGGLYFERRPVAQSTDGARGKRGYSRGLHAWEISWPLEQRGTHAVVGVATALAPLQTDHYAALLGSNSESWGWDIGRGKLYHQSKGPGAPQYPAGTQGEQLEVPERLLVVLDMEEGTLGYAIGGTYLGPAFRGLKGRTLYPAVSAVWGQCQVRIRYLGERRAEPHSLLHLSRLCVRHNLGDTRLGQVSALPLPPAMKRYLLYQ

Structure (SMILES) | Activity [1] | Activity [2] | Activity [3] | Activity [4]
COc1ccc(-c2nc(N)sc2C)cc1 | Active | – | – | –
Nc1nc2cc3c(cc2s1)OCCO3 | – | Active | – | –
Nc1nc(-c2ccccc2)cs1 | Active | – | Active | Active
Cc1sc(N)nc1-c1ccccc1 | Active | – | – | –

Reference: ChEMBL document CHEMBL3407385, “Promiscuous 2-aminothiazoles (PrATs): a frequent hitting scaffold” (J Med Chem, 2015)
